Data: patent US11292758B2, “Compounds and methods for delivery of prostacyclin analogs” (United Therapeutics Corporation, priority 2003, dated 2022)

Columns and labels:
[1] = Treprostinil plasma concentrations in rats after a single intraduodenal dose of prodrugs (Example 3); conditions: rat; for Tmax (of Treprostinil) / Maximum Treprostinil concentrations: intraduodenal; for adverse reactions following intraduodenal administration: single intraduodenal dose; for Maximum Treprostinil concentrations: 5 minutes post-dosing
From the text: This example illustrates a pharmacokinetic study of treprostinil following administration of a single duodenal dose of treprostinil and various prodrugs of the present invention.
In this study, the area under the curve of Treprostinil in male Sprague-Dawley rats following a single intraduodenal dose of treprostinil monophosphate (ring), treprostinil monovaline (ring), treprostinil monoalanine (ring) or treprostinil monoalanine (chain), prodrugs of treprostinil was compared. The compounds were as follows:
This solution was further diluted with 1.50 mL of PEG 400:Polysorbate 80:Water, 40:1:49.
A 50 mg/mL solution of treprostinil monovaline (ring) was prepared in dimethylacetamide (DMA). A 25 μL aliquot of the 50 mg/mL stock solution was then diluted with 175 μL of DMA and 1.8 mL of PEG 400:Polysorbate 80:Water, 40:1:49.
This solution was further diluted with 1.60 mL of PEG 400:polysorbate 80:Water, 40:1:49. The final concentration of the dosing vehicle was 0.590 mg/mL of treprostinil monoalanine (ring) equivalent to 0.5 mg/mL of Treprostinil.
A solution of treprostinil monoalanine (chain) was prepared by dissolving 0.83 mg of treprostinil monoalanine (chain) in 0.14 mL of dimethylacetamide (DMA) until dissolved. This solution was further diluted with 1.26 mL of PEG 400:Polysorbate 80:Water, 40:1:49.
The plasma concentrations of Treprostinil following […] of each prodrug were evaluated in male Sprague-Dawley rats. […] All groups were dosed on day 1 of the study.
Animals were dosed via an indwelling duodenal cannula.
The blood samples were withdrawn and placed into tubes containing 30 μL of a solution of 500 units per mL of heparin in saline, and centrifuged at 13,000 rpm for 10 minutes. Approximately 200 μL of plasma was then removed and dispensed into appropriately labeled polypropylene tubes containing 4 μL of acetic acid in order to stabilize any prodrug remaining in the samples. The plasma samples were frozen at −20° C. and were transported on ice to Absorption Systems Exton Facility. There they were stored in a −80° C. freezer pending analysis.
Plasma samples were analyzed using the methods described above. In brief, Treprostinil was extracted from the plasma via solid phase extraction then analyzed by LC/MS/MS. The lower limit of quantification (LLOQ) of the analytical method was 0.03 ng/mL.
Pharmacokinetic analysis was performed on the plasma concentration of Treprostinil for each individual rat at each time point and on the average plasma concentration for all three rats in the group for each time point.
The following formula was used to determine relative bioavailability (F): Relative F=(AUC(Prodrug Dose)/Dose)/(AUC(Treprostinil Dose)/Dose)*100

[2] = Clinical Study 01-101: escalating doses of UT-15C oral solution; conditions: for mean absolute bioavailability: based on historical intravenous treprostinil sodium data
Protocol: Prior to proceeding directly into clinical studies with a sustained release (SR) solid dosage form of UT-15C (treprostinil diethanolamine), a determination of the pharmacokinetics of an oral “immediate release” solution was performed.
A Safety, Tolerability, and Pharmacokinetic Study of Multiple Escalating Doses of UT-15C (Treprostinil Diethanolamine) Administered as an Oral Solution in Healthy Adult Volunteers (Including Study of Bioavailability).
Study endpoints included standard safety assessments (adverse events, vital signs, laboratory parameters, physical examinations, and electrocardiograms) as well as pharmacokinetic parameters.

[3] = Moisture sorption / hygroscopicity of treprostinil diethanolamine polymorphs; assay type: physicochemical; conditions: for weight gain in humidity chamber: 23 days
Protocol: The initial material synthesized (termed Form A) was characterized using X-ray powder diffraction (XRPD), differential scanning calorimetry (DSC), thermogravimetry (TG), hot stage microscopy, infrared (IR) and Raman spectroscopy, and moisture sorption. The IR and Raman spectra for Form A are shown in FIGS. 16 and 17, respectively. […] The moisture sorption data are shown graphically in FIG. 19. […] In addition, hygroscopicity of treprostinil diethanolamine was evaluated in humidity chambers at approximately 52% RH and 68% RH. […] Upon desorption from 95% down to 5% RH, the sample loses approximately 47%.

[4] = subcutaneous infusion; cited from earlier work
[5] = Treprostinil plasma concentrations in rats after a single oral dose of prodrugs (Example 2); assay type: in vivo, male Sprague-Dawley rats; conditions: rat; for Treprostinil AUC compared with dosing the active compound: oral; for adverse reactions following oral administration: single oral dose
Protocol: In this Example, Treprostinil concentrations were determined in male Sprague-Dawley rats following a single oral dose of the following compounds:
A solution of treprostinil methyl ester was prepared by dissolving 2.21 mg of treprostinil methyl ester with 0.85 mL of dimethylacetamide (DMA). […] The final concentration of the dosing vehicle was 0.26 mg/mL of treprostinil methyl ester equivalent to 0.25 mg/mL of Treprostinil.
A solution of treprostinil benzyl ester was prepared by dissolving 2.58 mg of treprostinil benzyl ester with 0.84 mL of dimethylacetamide (DMA). […] The final concentration of the dosing vehicle was 0.268 mg/mL of treprostinil benzyl ester equivalent to 0.25 mg/mL of Treprostinil.
A solution of treprostinil diglycine was prepared by dissolving 1.86 mg of compound with 0.58 mL of dimethylacetamide (DMA). […] The final concentration of the dosing vehicle was 0.323 mg/mL of treprostinil diglycine equivalent to 0.25 mg/mL of Treprostinil.
Groups I-III were dosed on the same day.
Animals were dosed via oral gavage.
Plasma samples were analyzed as described in Example 1. In brief, Treprostinil was extracted from the plasma via liquid-liquid extraction then analyzed by LC/MS/MS. The analytical validation results were reported previously in Example 1. […] Samples were not assayed for unchanged prodrug.

[6] = slurry inter-conversion in isopropanol and tetrahydrofuran
From the text: Form A is made according to the methods in Table 15. Form B is made from Form A, in accordance with the procedures of Table 16.

CCCCCC(O)CCC1C(OC(=O)C(C)N)CC2Cc3c(cccc3OCC(=O)O)CC21 [treprostinil monoalanine (ring), 2-L-Alanine Ester of Treprostinil]
Tmax (of Treprostinil) [1]: 60 min
adverse reactions following intraduodenal administration [1]: No adverse reactions were observed

CCCCC[C@H](O)CC[C@@H]1[C@H]2Cc3cccc(OCC(=O)O)c3C[C@H]2C[C@H]1O.OCCNCCO [UT-15C, Treprostinil Diethanolamine]
Treprostinil plasma concentrations detectable [2]: detectable in all subjects
changes in hematology, clinical chemistry, urinalysis, vital signs, physical exams, and ECGs [2]: no clinically significant, treatment emergent changes
most frequently reported adverse events [2]: flushing, headache, and dizziness
mean absolute bioavailability ([2]; 0.2 mg total dose): 21%
mean absolute bioavailability ([2]; 0.5 mg total dose): 23%
mean absolute bioavailability ([2]; 1.0 mg total dose): 24%
mean absolute bioavailability ([2]; 2.0 mg total dose): 25%
highest (treprostinil plasma) concentration observed ([2]; after the third dose aliquot of the 2.0 mg total dose): 5.51 ng/mL
tolerability ([2]; all doses given): well tolerated by the majority of subjects
AUCinf and Cmax versus dose ([2]; each of the four dose aliquots): increased in a linear fashion with dose
weight gain in humidity chamber ([3]; ~52% RH): 4.9%
weight gain in humidity chamber ([3]; ~68% RH): 28%

CCCCC[C@@H](CC[C@@H]1[C@H]2Cc3cccc(OCC(=O)O)c3C[C@H]2C[C@H]1O)OC(=O)[C@H](C)N [treprostinil monoalanine (chain), 3′-L-Alanyl Ester of Treprostinil]
Tmax (of Treprostinil) [1]: 5 min
Maximum Treprostinil concentrations [1]: approximately 9 ng/mL
adverse reactions following intraduodenal administration [1]: No adverse reactions were observed

CCCCC[C@H](O)CC[C@@H]1[C@H]2Cc3cccc(OCC(=O)O)c3C[C@H]2C[C@H]1O.OCCNCCO [Form B]
weight loss in moisture sorption ([3]; 5% RH): minimal weight loss
water absorbed ([3]; 95% RH): approximately 49%
loss upon desorption ([3]; from 95% down to 5% RH): approximately 47%

CCCCC[C@H](O)CC[C@@H]1[C@H]2Cc3cccc(OCC(=O)[O-])c3C[C@H]2C[C@H]1O.[Na+] [treprostinil sodium, (1R,2R,3aS,9aS)-[[2,3,3a,4,9,9a-Hexahydro-2-hydroxy-1-[(3S)-3-hydroxyoctyl]-1H-benz[f]inden-5-yl]oxy]acetic acid monosodium salt]
absolute bioavailability [4]: ~100%

CCCCC[C@H](O)CC[C@@H]1[C@H]2Cc3cccc(OCC(=O)OC)c3C[C@H]2C[C@H]1O [Treprostinil methyl ester, Methyl Ester of Treprostinil]
Treprostinil AUC compared with dosing the active compound [5]: less than that after dosing the active compound
adverse reactions following oral administration [5]: No adverse reactions were observed

CCCCCC(O)CCC1C(OP(=O)(O)O)CC2Cc3c(cccc3OCC(=O)O)CC21 (centres unmarked) [treprostinil monophosphate (ring), 2-Monophosphate Ester of Treprostinil]
Tmax (of Treprostinil) [1]: 5 min
Maximum Treprostinil concentrations [1]: approximately 9 ng/mL
adverse reactions following intraduodenal administration [1]: No adverse reactions were observed

CCCCCC(O)CCC1C(OC(=O)C(N)C(C)C)CC2Cc3c(cccc3OCC(=O)O)CC21 [treprostinil monovaline (ring), 2-L-Valine Ester of Treprostinil]
Tmax (of Treprostinil) [1]: 120 min
adverse reactions following intraduodenal administration [1]: No adverse reactions were observed

CCCCC[C@H](O)CC[C@@H]1[C@H]2Cc3cccc(OCC(=O)O)c3C[C@H]2C[C@H]1O.OCCNCCO [Form A]
hygroscopicity [3]: hygroscopic
weight gain during moisture sorption ([3]; beginning between 65 to 75% RH): > 33%
thermodynamic stability of the crystal form [6]: metastable

CCCCC[C@@H](O)CC[C@@H]1C2Cc3cccc(OCC(=O)OCc4ccccc4)c3CC2C[C@H]1O (some centres unmarked) [Treprostinil benzyl ester, Benzyl Ester of Treprostinil]
Treprostinil AUC compared with dosing the active compound [5]: greater than that after dosing of the active compound
adverse reactions following oral administration [5]: No adverse reactions were observed

CCCCC[C@H](CC[C@@H]1C2Cc3cccc(OCC(=O)O)c3CC2C[C@H]1OC(=O)CN)OC(=O)CN (some centres unmarked) [Treprostinil diglycine, Bis-Glycyl Ester of Treprostinil]
Treprostinil AUC compared with dosing the active compound [5]: greater than that after dosing of the active compound
adverse reactions following oral administration [5]: No adverse reactions were observed
